How the values were obtained:
Assay type in all cases: functional
Design in all cases: scale not given: the % may be the effect or the level left
Trypanosoma cruzi [1] = assay: Trypanocidal activity against Trypanosoma cruzi Y strain trypomastigotes infected in Swiss albino mouse blood assessed as reduction of parasitemia at 500 ug/mL after 24 hrs relative to control
Trypanosoma cruzi [2] = assay: Trypanocidal activity against Trypanosoma cruzi Y strain trypomastigotes infected in Swiss albino mouse blood assessed as reduction of parasitemia at 31 ug/mL after 24 hrs relative to control
Trypanosoma cruzi [3] = assay: Trypanocidal activity against Trypanosoma cruzi Y strain trypomastigotes infected in Swiss albino mouse blood assessed as reduction of parasitemia at 1000 ug/mL after 24 hrs relative to control

Compound `COc1cc(O)c2c(c1)O[C@H](c1ccc(O)cc1)CC2=O` [SAKURANETIN] has an Activity (Trypanosoma cruzi [1]) of 100%.

`CN(C)c1ccc(C(=C2C=CC(=[N+](C)C)C=C2)c2ccc(N(C)C)cc2)cc1.[Cl-]` [GENTIAN VIOLET] was tested, and the Activity (Trypanosoma cruzi [2]) was 50%.

With `COc1cc2oc(-c3ccc(O)cc3)c(OC)c(=O)c2c(O)c1OC` [PENDULETIN] the Activity (Trypanosoma cruzi [1]) was 86%.

Work on `COc1c(OC)c(O)c2c(=O)c(OC)c(-c3ccc(O)cc3)oc2c1OC` [CALYCOPTERIN] yielded an Activity (Trypanosoma cruzi [3]) of 0%.

In the case of `COc1cc(O)c2c(c1)OC(c1ccc(O)cc1)C(O)C2=O` (stereo not given), the Activity (Trypanosoma cruzi [3]) is reported as 0%.

— ChEMBL document CHEMBL1146449, “Trypanocidal flavonoids from Trixis vauthieri” (1997)
